Results reported in patent US8318792B2, “Therapeutic agent for amyotrophic lateral sclerosis” (Nippon Medical School Foundation, priority 2006, dated 2012).

How the values were obtained:
Assay type in all cases: in vivo, mouse
G1H-G93A transgenic mice [1] = assay: Exercise tolerance test: inclined plane test; settings: for Inclined plane test score: 5 mg/kg oral daily from 80th day (before onset), score 0-3, 5 mg/kg
Procedure: (§1) The following five kinds of exercise tolerance tests were conducted every fifth day from the 70th day after birth to evaluate the ability to exercise in the respective exercise tolerance tests. That is, the days for the exercise tolerance tests were every fifth days, such as the 70th day, 75th day, 80th day, 85th day and so on, after birth. The exercise tolerance tests were conducted throughout the survival period, and the post-mortem evaluation was based on the definitions of the following five kinds of exercise tolerance tests.
The apparatus used in the inclined plane test is an apparatus allowing a wooden board to be fixed at the respective angles of 45°, 65° and 80° from a horizontal plane. A mouse is placed in the posture of head-up position on the wooden board inclined at each angle and the mouse is allowed to maintain this position for 5 seconds without falling downward. In the evaluation method of the inclined plane test for each mouse, the number of seconds (TA seconds: 5 seconds or less) during which the position could be maintained without falling downward is measured at each of the angles (A) of 45°, 65° and 80°, and then the total sum value of the products of the angle (A) and the number of seconds (TA) during which the position could be maintained: Σ [Angle(A)×Time (TA)] is calculated. Since a normal mouse is capable of maintaining the position on the wooden board inclined to the respective angles for 5 seconds, the sum value of Σ [Angle(A)×Time (TA)] will be 80×5+65×5+45×5=950. The evaluation of the inclined plane test for the mouse was performed based on the following criteria: Score 0=950; Score 1=over 550 to less than 950; Score 2=over 225 to 550; and Score 3=225 and below. The post-mortem evaluation of the inclined plane test is defined as score 3.

G1H-G93A transgenic mice [2] = assay: Exercise tolerance test: footprint test; settings: 5 mg/kg oral daily from 80th day (before onset), score 0-4
Procedure: as §1
Both hindlimbs of a mouse are dipped in a black ink bottle, and then the mouse is allowed to walk on white paper. The footprints of the two hindlimbs of the mouse after the walking are analyzed. […] The post-mortem evaluation of the footprint test is defined as score 4.

G1H-G93A transgenic mice [3] = assay: Exercise tolerance test: rotarod test; settings: for Rotarod test score: 5 mg/kg oral daily from 80th day (before onset), score 0-3
Procedure: as §1
The apparatus used in the Rotarod test (Rota Rod Treadmill type 7600, Ugo Basile Co., Milano, Italy) is a rotating axle having a diameter of 3.6 cm, and this rotating axle is set up so as to have 16 revolution per minute (one rotation: 3.75 seconds). The period for which a mouse can remain on a rotating axle without falling is measured. The evaluation of the rotarod test for the mouse was performed based on the following criteria: Score 0=The time exceeds 60 seconds; Score 1=The time is more than 30 seconds and 60 seconds or less; Score 2=The time is more than 4 seconds and 30 seconds or less; and Score 3=The time is 4 seconds or less. The post-mortem evaluation of the rotarod test is defined as score 3.

G1H-G93A transgenic mice [4] = assay: Exercise tolerance test: beam balance test; settings: 5 mg/kg oral daily from 80th day (before onset), score 0-2
Procedure: as §1
The apparatus used in the beam balance test is constructed by maintaining a wooden beam having a diameter of 1.5 cm horizontally, and installing platforms which serve as footholds, on the respective sides in a distance of 30 cm. A mouse is placed on the platform on one side, and the time taken by the mouse to cross over the beam which is 30 cm in length and to arrive at the platform on the opposite side is measured. The evaluation of the beam balance test for the mouse was performed based on the following criteria: Score 0=The time is 10 seconds or less; Score 1=The time is more than 10 seconds to 15 seconds; and Score 2=The time is more than 15 seconds, or the mouse falls down. The post-mortem evaluation of the beam balance test is defined as score 2.

[5] = from the 125th day to 140th day after birth

Cc1nc(-c2ccc(OCC(C)C)c(C#N)c2)sc1C(=O)O [compound (c), 2-[3-cyano-4-(2-methylpropoxy)phenyl]-4-methyl-5-thiazolecarboxylic acid]
Inclined plane test score (G1H-G93A transgenic mice [1]; 70th day after birth): 0.0±0.0 | Inclined plane test score (G1H-G93A transgenic mice [1]; 75th day after birth): 0.0±0.0 | Inclined plane test score (G1H-G93A transgenic mice [1]; 80th day after birth): 0.0±0.0 | Inclined plane test score (G1H-G93A transgenic mice [1]; 85th day after birth): 0.0±0.0 | Inclined plane test score (G1H-G93A transgenic mice [1]; 90th day after birth): 0.0±0.0 | Inclined plane test score (G1H-G93A transgenic mice [1]; 95th day after birth): 0.0±0.0 | Inclined plane test score (G1H-G93A transgenic mice [1]; 100th day after birth): 0.0±0.0 | Inclined plane test score (G1H-G93A transgenic mice [1]; 105th day after birth): 0.0±0.0 | Inclined plane test score (G1H-G93A transgenic mice [1]; 110th day after birth): 0.0±0.0 | effect in inclined plane test as compared to placebo group (G1H-G93A transgenic mice [1]; 110th, 115th, 120th, 125th and 130th day, 5 mg/kg oral daily from 80th day after birth, Mann-Whitney's U test): significant effects | Inclined plane test score (G1H-G93A transgenic mice [1]; 115th day after birth): 0.1±0.3 | Inclined plane test score (G1H-G93A transgenic mice [1]; 120th day after birth): 0.8±0.6 | Inclined plane test score (G1H-G93A transgenic mice [1]; 125th day after birth): 1.2±0.8 | Inclined plane test score (G1H-G93A transgenic mice [1]; 130th day after birth): 2.3±0.7 | Inclined plane test score (G1H-G93A transgenic mice [1]; 135th day after birth): 2.9±0.3 | Inclined plane test score (G1H-G93A transgenic mice [1]; 140th day after birth): 3.0±0.0 | Footprint test score (G1H-G93A transgenic mice [2]; 70th day after birth): 0.0±0.0 | Footprint test score (G1H-G93A transgenic mice [2]; 75th day after birth): 0.0±0.0 | Footprint test score (G1H-G93A transgenic mice [2]; 80th day after birth): 0.0±0.0 | Footprint test score (G1H-G93A transgenic mice [2]; 85th day after birth): 0.0±0.0 | Footprint test score (G1H-G93A transgenic mice [2]; 90th day after birth): 0.0±0.0 | Footprint test score (G1H-G93A transgenic mice [2]; 95th day after birth): 0.0±0.0 | Footprint test score (G1H-G93A transgenic mice [2]; 100th day after birth): 0.0±0.0 | Footprint test score (G1H-G93A transgenic mice [2]; 105th day after birth): 0.0±0.0 | Footprint test score (G1H-G93A transgenic mice [2]; 110th day after birth): 0.1±0.3 | Footprint test score (G1H-G93A transgenic mice [2]; 115th day after birth): 0.7±0.8 | Footprint test score (G1H-G93A transgenic mice [2]; 120th day after birth): 1.6±1.0 | Footprint test score (G1H-G93A transgenic mice [2]; 125th day after birth): 2.7±0.5 | Footprint test score (G1H-G93A transgenic mice [2]; 130th day after birth): 3.3±0.5 | Footprint test score (G1H-G93A transgenic mice [2]; 135th day after birth): 3.9±0.3 | Footprint test score (G1H-G93A transgenic mice [2]; 140th day after birth): 4.0±0.0 | Rotarod test score (G1H-G93A transgenic mice [3]; 70th day after birth, 5 mg/kg): 0.0±0.0 | Rotarod test score (G1H-G93A transgenic mice [3]; 75th day after birth, 5 mg/kg): 0.0±0.0 | Rotarod test score (G1H-G93A transgenic mice [3]; 80th day after birth, 5 mg/kg): 0.0±0.0 | Rotarod test score (G1H-G93A transgenic mice [3]; 85th day after birth, 5 mg/kg): 0.0±0.0 | Rotarod test score (G1H-G93A transgenic mice [3]; 90th day after birth, 5 mg/kg): 0.0±0.0 | Rotarod test score (G1H-G93A transgenic mice [3]; 95th day after birth, 5 mg/kg): 0.0±0.0 | Rotarod test score (G1H-G93A transgenic mice [3]; 100th day after birth, 5 mg/kg): 0.0±0.0 | Rotarod test score (G1H-G93A transgenic mice [3]; 105th day after birth, 5 mg/kg): 0.0±0.0 | effect in rotarod test as compared to placebo group (G1H-G93A transgenic mice [3]; 105th, 110th and 115th day, 5 mg/kg oral daily from 80th day after birth, Mann-Whitney's U test): significant effects | Rotarod test score (G1H-G93A transgenic mice [3]; 110th day after birth, 5 mg/kg): 0.4±0.8 | Rotarod test score (G1H-G93A transgenic mice [3]; 115th day after birth, 5 mg/kg): 1.3±1.3 | Rotarod test score (G1H-G93A transgenic mice [3]; 120th day after birth, 5 mg/kg): 2.5±0.5 | Rotarod test score (G1H-G93A transgenic mice [3]; 125th day after birth): 3.0 ± 0.0 | Rotarod test score (G1H-G93A transgenic mice [3]; 130th day after birth): 3.0 ± 0.0 | Rotarod test score (G1H-G93A transgenic mice [3]; 135th day after birth): 3.0 ± 0.0 | Rotarod test score (G1H-G93A transgenic mice [3]; 140th day after birth): 3.0 ± 0.0 | Rotarod test score (G1H-G93A transgenic mice [3]; [5]): 3.0±0.0 | Beam balance test score (G1H-G93A transgenic mice [4]; 70th day after birth, 5 mg/kg): 0.0±0.0 | Beam balance test score (G1H-G93A transgenic mice [4]; 75th day after birth, 5 mg/kg): 0.0±0.0 | Beam balance test score (G1H-G93A transgenic mice [4]; 80th day after birth, 5 mg/kg): 0.0±0.0 | Beam balance test score (G1H-G93A transgenic mice [4]; 85th day after birth, 5 mg/kg): 0.0±0.0 | Beam balance test score (G1H-G93A transgenic mice [4]; 90th day after birth, 5 mg/kg): 0.0±0.0 | Beam balance test score (G1H-G93A transgenic mice [4]; 95th day after birth, 5 mg/kg): 0.0±0.0 | Beam balance test score (G1H-G93A transgenic mice [4]; 100th day after birth, 5 mg/kg): 0.0±0.0 | Beam balance test score (G1H-G93A transgenic mice [4]; 105th day after birth, 5 mg/kg): 0.0±0.0 | Beam balance test score (G1H-G93A transgenic mice [4]; 110th day after birth, 5 mg/kg): 0.1±0.3 | Beam balance test score (G1H-G93A transgenic mice [4]; 115th day after birth, 5 mg/kg): 0.7±0.8 | Beam balance test score (G1H-G93A transgenic mice [4]; 120th day after birth, 5 mg/kg): 1.4±0.7 | Beam balance test score (G1H-G93A transgenic mice [4]; 125th day after birth): 2.0 ± 0.0 | Beam balance test score (G1H-G93A transgenic mice [4]; 130th day after birth): 2.0 ± 0.0 | Beam balance test score (G1H-G93A transgenic mice [4]; 135th day after birth): 2.0 ± 0.0 | Beam balance test score (G1H-G93A transgenic mice [4]; 140th day after birth): 2.0 ± 0.0 | Beam balance test score (G1H-G93A transgenic mice [4]; [5]): 2.0±0.0
